Experimental data as given in patent publication US20240351959A1, “USE OF ETHYNYLPYRIDINE COMPOUNDS AS NITRIFICATION INHIBITORS” (BASF SE, priority 2021, published 2024).

Experiments:
nitrification [1] = test: % NH4-N recovery from fertilized NH4-N in soil Limburgerhof; settings: 20° C.
Procedure: The compounds according to the invention have been further tested in terms of their % NH4—N recovery from fertilized NH4—N.
The compounds according to general formula I were tested as follows in terms of the inhibition of nitrification:
100 g soil (soil Limburgerhof with pH(CaCl2) 6.8; 73% sand, 23% silt, 4% clay, which is classified according to FAO as a sandy loam) is filled into 500 ml plastic bottles and is moistened to 50% water holding capacity. The soil is incubated at 20° C. for two weeks prior to the experiments to activate the microbial biomass. 1 ml test solution, containing the compounds of formula I or the comparative compounds in the appropriate concentration (0.1, 0.3 or 1% (w/w) of fertilized NH4—N), and 10 mg nitrogen in the form of ammoniumsulfate-N(NH4—N) is added to the soil and everything mixed well. Unfertilized controls received 1 ml pure water. Bottles are capped but loosely to allow air exchange. The bottles are then incubated at 20° C. for 14 days and 28 days.
For analysis, 300 ml of a 1% K2SO4-solution is added to the bottle containing the soil and shaken for 2 hours in a horizontal shaker at 150 rpm. Then the whole solution is filtered through a filter (Macherey-Nagel Filter MN 807%). Ammonium content is then analyzed in the filtrate using an autoanalyzer. Ammonium was quantified via an indophenol blue dye at 660 nm.
The nitrification inhibition is expressed as % of NH4—N recovery from fertilized NH4—N(100%) after subtraction of unfertilized control soil. The number of replicates is 4.
For comparison of the % NH4—N recovery of the compound of the invention, i.e. Example 4, with the comparative compounds as shown above from different trials, the standard deviation of a common treatment of all trials with DMPP (3,4-dimethylpyrazole phosphate) was calculated. As the standard deviation was low, data from different trials were pooled together to compare the average % NH4—N recovery for the compound of the invention and the comparative compounds as shown above.

nitrification [2] = test: inhibition of nitrification in soil incubation (NI); settings: soil incubated at 20° C., 14 days; for NI @ 0.3%: compound at 0.3% of nitrogen N; for NI @ 1%: compound at 1% of nitrogen N; for NI @ 0.1%: compound at 0.1% of nitrogen N
Procedure: The compounds of the invention have been tested as follows in terms of the inhibition of nitrification:
100 g soil is filled into 500 ml plastic bottles (e.g. soil sampled from the field) and is moistened to 50% water holding capacity. The soil is incubated at 20° C. for two weeks to activate the microbial biomass. 1 ml test solution, containing the compound of formula I in the appropriate concentration (usually 0.1, 0.3 or 1% of nitrogen N), or DMSO and 10 mg nitrogen in the form of ammoniumsulfate-N is added to the soil and everything mixed well. Bottles are capped but loosely to allow air exchange. The bottles are then incubated at 20° C. for 0 and 14 days.
For analysis, 300 ml of a 1% K2SO4-solution is added to the bottle containing the soil and shaken for 2 hours in a horizontal shaker at 150 rpm. Then the whole solution is filtered through a filter (Macherey-Nagel Filter MN 807%). Ammonium and nitrate content is then analyzed in the filtrate in an autoanalyzer at 550 nm (Merck, AA11).
The inhibition (NI® a specified concentration) is calculated as follows: […]

N2O emission = test: reduction of N2O emission, potted corn plants in greenhouse soil; parameters: species or system Zea mais; settings: 100 ppm ammonium sulfate, cumulated emissions over two weeks, relative to untreated but fertilized control
Procedure: Example 2 was additionally tested in terms of the reduction of N20 emission Corn seeds (Zea mais, cultivar “Shorty”) were planted 1 seed/pot in 8 cm pots in standard greenhouse soil (mixture of peat, loam and sand) and grown in a greenhouse at 20° C. and 60% humidity. Plants were grown for ten days in a completely randomized set-up. On day 6, plants were watered but not fertilized to 50% water holding capacity then left to dry out. On day ten, the plants were separated out and each pot set onto a plant saucer designed with an inner compartment for the pot and an outer ring that is filled with water. At time 0 water with or without 100 ppm ammonium sulfate and with or without the given concentration of nitrification inhibitor (1% and 0.3%) was applied to the plant such that the water holding capacity of the soil was around 50-60%. Then a gas sampling chamber was placed over the plant saucer such that the rim fit into the ring filled with water to create a gas-tight chamber and 20 cc air from the chamber were drawn into a syringe and immediately emptied in to a Vacutainer (Labco, 12 ml volume). […] Samples were analyzed in a Shimadzu 2014 GC equipped with an ECD system. Data was calculated as the cumulated emissions over the measurement period and the % reduction of N20 emissions relative to the untreated but fertilized control was calculated.

Compound: C[Si](C)(C)C#Cc1ccccn1 [Comparative Example A]
- % NH4—N recovery after 14 days (nitrification [1]; 0.1 wt.-% relative to NH4—N): 46.50%
- % NH4—N recovery after 14 days (nitrification [1]; 0.3 wt.-% relative to NH4—N): 60.30%
- % NH4—N recovery after 28 days (nitrification [1]; 0.3 wt.-% relative to NH4—N): 51.2%
- % NH4—N recovery after 14 days (nitrification [1]; 1 wt.-% relative to NH4—N): 67.80%
- % NH4—N recovery after 28 days (nitrification [1]; 1 wt.-% relative to NH4—N): 68.1%

Compound: C[Si](C)(C)C#Cc1ccc(Cl)cn1 [Comparative Example B]
- % NH4—N recovery after 14 days (nitrification [1]; 0.1 wt.-% relative to NH4—N): 20.94%
- % NH4—N recovery after 14 days (nitrification [1]; 0.3 wt.-% relative to NH4—N): 44.40%
- % NH4—N recovery after 28 days (nitrification [1]; 0.3 wt.-% relative to NH4—N): 11.1%
- % NH4—N recovery after 14 days (nitrification [1]; 1 wt.-% relative to NH4—N): 59.90%
- % NH4—N recovery after 28 days (nitrification [1]; 1 wt.-% relative to NH4—N): 61.0%

Compound: Clc1cccc(C(Cl)(Cl)Cl)n1 [Comparative Example, reference compound]
- NI @ 0.3% (nitrification [2]): 35%
- NI @ 1% (nitrification [2]): 54%

Compound: C#Cc1cc(Cl)ccn1 [Example 1]
- NI @ 0.1% (nitrification [2]): 46%
- NI @ 1% (nitrification [2]): 83%

Compound: C#Cc1ccc(Cl)cn1 [Example 2]
- NI @ 0.1% (nitrification [2]): 74%
- NI @ 1% (nitrification [2]): 76%
- % reduction of N2O relative to control @ 0.3% (N2O emission; nitrification inhibitor 0.3%): 91%
- % reduction of N2O relative to control @ 1% (N2O emission; nitrification inhibitor 1%): 97%

Compound: C#Cc1ccc(Cl)nc1 [Example 3]
- NI @ 0.1% (nitrification [2]): 68%
- NI @ 0.3% (nitrification [2]): 84%
- NI @ 1% (nitrification [2]): 94%

Compound: C#Cc1ccc(Cl)cn1 [Example 4]
- % NH4—N recovery after 14 days (nitrification [1]; 0.1 wt.-% relative to NH4—N): 74.00%
- % NH4—N recovery after 14 days (nitrification [1]; 0.3 wt.-% relative to NH4—N): 68.50%
- % NH4—N recovery after 28 days (nitrification [1]; 0.3 wt.-% relative to NH4—N): 59.0%
- % NH4—N recovery after 14 days (nitrification [1]; 1 wt.-% relative to NH4—N): 72.00%
- % NH4—N recovery after 28 days (nitrification [1]; 1 wt.-% relative to NH4—N): 56.0%
